From patent US12187653B2, “Surface retarder formulation and method for replicating an acid etch or sand blast aspect on cementitious material” (GCP Applied Technologies Inc., priority 2018, dated 2025) come the findings set out here.

Data set [1] is described as follows: Etch quality of in-form surface retarder on cast concrete after pressure washing. The conditions noted are these: for surface etch: Example 6, procedure of Example 2. The method, then:
Each was used to make an in-form surface retarder by combining the materials shown below, in the order listed, in a Silverson-high shear rotor-stator mixer at 5000 rpm, and mixing for 10 minutes after the final addition.
The exemplary in-form surface retarder was roller applied in rectangles on a wood form at a rate of 400 ft^2/gallon and allowed to dry for 2 hours at 72° F.
The concrete was poured into the wood form which has the surface retarder paint applied. The concrete was allowed to dry and cure without covering for 22 hours at a temperature of 90° F.
After 22 hours of curing, the concrete was removed from the wood mold and sprayed with high pressure water from a 1900 psi pressure washer to remove the in-form surface retarder and retarded cement paste. Washing continued until water was running clear and no further cement paste is removed (this process removes whatever cement paste that has not hardened to the surface of the concrete due to the retarding effects of the acids tested).

Data set [2] can be described thus: Cement binding: percent of species absorbed to cement, by ion chromatography. The conditions noted are these: for % adsorbed: 1% acid in 2% KOH solution, 30 g solution on 3 g cement, 10 min; for % binding to cement: Example 6, procedure of Example 1B. The method, then:
Each acid was dissolved at 1% by weight in a 2% by weight KOH solution. Thirty grams of solution was exposed to 3 g of Type I/II cement in a tube, and mixed on a tube rotator for 10 min @ 30 rpm. The resulting slurry was centrifuged for 1 min at 4000 rpm to separate the cement and adsorbed compounds from the soluble species. The soluble portion was filtered with a 0.2 micron syringe filter and then analyzed by ion chromatography using an ICS-2100 RFIC by Dionex with single point calibration with a standard at 100 ppm. Samples and standards were prepared in 50 mM KOH solution. Samples' dilutions were adjusted to be within calibration range. Data analysis run through peak area integration.
The cement binding is expressed as a percent of the species present that absorbed to the cement.

The conditions of data set [3]: Table 5: resin in the given solvent. The method, then: The solubility of resin in various organic solvents was evaluated by observation. A small amount of resin (0.2 g) was placed in a vial with 3 mL of the solvent. Observations were made immediately, after two hours and thirty minutes, and after 15 hours.
Data set [4] can be described thus: Solubility of acids in water, saturated solution measured by Total Organic Carbon. The conditions noted are these: in 100 mL water, 25° C., stirred 14 hours, TOC.
Procedure: The mixture was allowed to settle and the saturated aqueous solution of acid was decanted. Concentration was measured by Total Organic Carbon using a TOC-L CSH/CSN by Shimadzu. A calibration curve is generate based off a four point calibration of 0 ppm, 25 ppm, 50 ppm, and 100 ppm carbon. Samples are then diluted to a predetermined dilution factor. 20 mL of the diluted samples are acidified to a pH of ^˜2-3 with hydrochloric acid. Samples are run based off the calibration curve performing two 50 uL injections each to determine the total organic carbon of the sample.
[5] abbreviates: Example 2: retarder with 8 g acid, 400 ft^2/gallon on wood form, concrete cured 22 hours at 90° F., compared to FIG. 1.
[6] abbreviates: Example 3, same procedure as Example 2, tartaric acid forms compared.

Regarding `O=C(O)C(O)C(O)C(=O)O` (racemic) [DL-Tartaric Acid], the Etch depth entry in data set [1] (setting [5]) was “just right, light etch showing sand textures”; in data set [1] (setting [6]), “just right, light etch showing sand textures”. Further, the “% adsorbed” value in data set [2] is 31.6%.
Regarding `NCCCCCCCCCCCC(=O)O` [12-Aminododecanoic Acid], the surface etch result in data set [1] is listed as “very light to none”. In addition, the “% binding to cement” value in data set [2] was determined as 90%.
For `O=C(O)CCCCC(=O)O` [Adipic Acid], the Etch depth result in data set [1] (setting [5]) is listed as “Lighter than optimum, not even”. Also, the “% adsorbed” value in data set [2] is on record as 1.1%.
On to `OB(O)O` [Boric Acid by ICP, Boric Acid], for which the “% binding to cement” value in data set [2] was found to be 100%.
Take `CCCCOC(C)=O` [Butyl Acetate]: in data set [3], the Resin solubility result is on record as “Dissolved”.
In the case of `C/C(=C/C(=O)O)C(=O)O` [Citraconic Acid], the Etch depth entry in data set [1] (setting [5]) is “Lighter than optimum, not even”. Moreover, the “% adsorbed” value in data set [2] stood at 1.9%.
For `O=C(O)C(O)C(O)C(=O)O` (centres unmarked) [D Tartaric Acid], the Etch depth result is “too deep, coarse aggregates visible” in data set [1] (setting [5]) and “too deep, coarse aggregates visible” in data set [1] (setting [6]). Also, the “% adsorbed” value in data set [2] amounted to 29.1%.
As to `O=C[C@H](O)[C@@H](O)[C@H](O)[C@H](O)CO` [D-(+)-Glucose], the “% binding to cement” value in data set [2] was 100%.
Consider `O=C(O)CN(CCN(CC(=O)O)CC(=O)O)CC(=O)O` [Ethylenediamine-tetraacetic], for which the surface etch entry in data set [1] is reported as “very light to none”. For the same compound, the “% binding to cement” value in data set [2] is 36%.
In the case of `O=C(O)CCCC(=O)O` [Glutaric Acid], the Etch depth entry in data set [1] (setting [5]) is reported as “just right, light etch showing sand textures”. This compound also gave a Solubility in data set [4] of 36 g/100 g. Moreover, the “% adsorbed” value in data set [2] is listed as 0%.
Consider `O=C(O)C(O)C(O)C(=O)O` (centres unmarked) [L Tartaric Acid], for which the Etch depth result in data set [1] (setting [5]) is “too deep, coarse aggregates visible”; in data set [1] (setting [6]), “too deep, coarse aggregates visible”. For the same compound, the “% adsorbed” value in data set [2] was found to be 21.5%.
Turning to `O=C(O)CC(=O)O` [Malonic Acid], in data set [1] (setting [5]), the Etch depth entry was “too deep, coarse aggregates visible”. The “% adsorbed” value in data set [2] came out at 6.3%.
The corresponding values for `C/C(=C\C(=O)O)C(=O)O` [Mesaconic Acid] are “Very light to none” and 0%.
Turning to `CC(C(=O)O)C(=O)O` [Methymalonic Acid, Methylmalonic acid], the Etch depth result in data set [1] (setting [5]) is listed as “Very light to none”. The compound further displayed a Solubility in data set [4] of 5 g/100 g. In addition, the “% adsorbed” value in data set [2] came out at 7.0%.
`O=C(O)C(=O)O` [Oxalic Acid]: in data set [1] (setting [5]), the Etch depth result was “just right, light etch showing sand textures”. Moreover, the “% adsorbed” value in data set [2] is 94.8%.
For `O=C(O)c1ccccc1C(=O)O` [Phthalic Acid] the same measures were “Very light to none” and 0%.
For the compound `O=C(O)CCC(=O)O` [Succinic Acid], the Etch depth entry in data set [1] (setting [5]) is listed as “Lighter than optimum, not even”. Further, the “% adsorbed” value in data set [2] is recorded as 6.4%.
`O=C(O)/C=C(\CC(=O)O)C(=O)O` [trans-Aconitic Acid]: in data set [2], the “% binding to cement” value is 5%.
Take Xylene: the Resin solubility result in data set [3] is “Dissolved”.
